Data on nine molecules can be found in PMC11345828 (Journal of Medicinal Chemistry, 2024).

On the set-up of series [1]: method as in PMID 37880389. The conditions noted are these: including increases in patient troponin I levels; cited from earlier work.
On the set-up of series [2]: method as in PMID 30254093. The conditions noted are these: species not given; cited from earlier work.
In series [3] the target is Mcl-1 (Homo sapiens, UniProt Q07820). The series is classed as binding. The conditions noted are these: read-out: TR-FRET Ki. From the text:
Mixtures containing vehicle without compound served as a negative control, while mixtures containing no protein served as a positive control.

Series [4] deals with NCI-H929 cell line. Kind of series: cells. The conditions noted are these: Homo sapiens. The procedure:
(§1) NCI-H1048 were cultured in custom medium prepared by PanBioTech containing DMEM/F12 + 5% fetal calf serum, 0.005 mg/mL insulin, 0.01 mg/mL transferrin, 30 nM sodium selenite, 10 nM hydrocortisone, 10 nM β-estradiol and […] 2 mM L-glutamine.
(§2) Suspension cells were plated immediately before compound addition. Adherent cell lines were incubated overnight at 37 °C in a tissue culture incubator prior to compound addition. Compounds were added in triplicates using an HP D300e Digital Dispenser (Hewlett-Packard) or manually at the concentrations indicated and total volumes were normalized using dimethyl sulfoxide (DMSO) backfill, with final DMSO concentration of 0.5%. Control wells were treated with DMSO only.

Series [5] relates to K562 cell line. Nature of the series: cells. The conditions noted are these: Homo sapiens, K562, read-out: K562 GI50. The procedure:
as §1, §2

A short description of series [6]: Mouse IV PK.
Procedure: (§3) For PK analysis, mice and dogs were administered intravenously with compound formulated either in 10% ethanol and 10% Cremophor EL for mice or in 50% ethanol and 50% PEG500 for dogs. Plasma samples were obtained at predefined time points and compound concentrations in plasma were measured by quantitative HPLC-MS/MS using an internal standard. Calibration and quality control samples were prepared using blank plasma from untreated animals. Samples were precipitated with acetonitrile and injected into a HPLC system (Agilent 1200). […] The HPLC was interfaced by ESI operated in positive ionization mode to a triple quadrupole mass spectrometer (6500+ Triple Quad System, SCIEX) operated in multiple reaction monitoring mode. Chromatograms were analyzed with Analyst (SCIEX) and pharmacokinetic parameters were calculated by noncompartmental analysis using proprietary software.
Series [7] can be described thus: Dog IV PK. The following applies: dosed at 0.25 mg/kg.
Procedure: as §3
[8] abbreviates: NCI-H929, read-out: NCI-H929 GI50.

By Vss is commonly meant the apparent volume that relates the amount in the body to the concentration in plasma or blood. A word on the Ki: it is the dissociation constant of the complex between target and ligand, obtained from inhibition or displacement. As usually defined, the GI50 is the concentration giving 50% growth inhibition. What is called clearance is a measure of how efficiently the substance is removed, as volume per time. Read a high clearance as efficient removal.

Where two headings read alike, the source gives them in different places. Marks after values point to notes of the source that are not given here. Some results are limits rather than exact numbers.

Sequence of Mcl-1 (Q07820 whole entry): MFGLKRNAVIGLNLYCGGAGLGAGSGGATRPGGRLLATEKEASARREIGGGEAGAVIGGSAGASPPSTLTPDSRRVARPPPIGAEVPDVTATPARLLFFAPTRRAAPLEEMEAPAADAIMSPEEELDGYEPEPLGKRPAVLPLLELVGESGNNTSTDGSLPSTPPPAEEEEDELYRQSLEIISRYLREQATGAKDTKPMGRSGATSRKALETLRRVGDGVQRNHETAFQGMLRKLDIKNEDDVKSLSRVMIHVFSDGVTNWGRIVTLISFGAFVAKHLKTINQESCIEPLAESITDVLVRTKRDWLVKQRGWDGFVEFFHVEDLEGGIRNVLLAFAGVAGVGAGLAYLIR

With `COc1ccccc1-c1nccc(COc2ccccc2C[C@@H](Oc2ncnc3sc(-c4ccc(F)cc4)c(-c4ccc(OCCN5CCN(C)CC5)c(Cl)c4C)c23)C(=O)O)n1` [Compound 1], the “toxicity reported in the clinic” value in series [1] is on record as “dose limiting toxicities”.
For the molecule `CO[C@H]1/C=C/C[C@H](C)[C@@H](C)S(=O)(=O)NC(=O)c2ccc3c(c2)N(C[C@@H]2CC[C@H]21)C[C@@]1(CCCc2cc(Cl)ccc21)CO3` [Compound 3], in series [2], the T was 14 h and the Vss is reported as 0.6 L/kg.
As for `CO[C@]1(CN2CCN3CCCC[C@@H]3C2)/C=C/C[C@H](C)[C@@H](C)S(=O)(=O)NC(=O)c2ccc3c(c2)N(C[C@@H]2CC[C@H]21)C[C@@]1(CCCc2cc(Cl)ccc21)CO3` [Compound 4], the “toxicity reported in the clinic” value in series [1] was “dose limiting toxicities”.
As to `Cc1c(Cl)c2c(Cl)c(C)c1-c1c(-c3ccc(F)cc3)sc3ncnc(c13)O[C@@H](C(=O)O)Cc1cc(ccc1OCc1ccnc(-c3ccc(OC[C@H]4COCCO4)cc3)n1)OC[C@@H](CN1CCN(C)CC1)O2` [Compound 5], in series [1], the “toxicity reported in the clinic” value is recorded as “dose limiting toxicities”.
`Cc1cc(N2C[C@@H](C)n3c(c(CCCOc4cc(C)c(Cl)c(C)c4)c4ccc(Cl)c(-c5c(C)nn(C)c5C)c43)C2=O)c2c(c1)cc(C(=O)O)n2C` [Compound 11, (R)-7-(7-Chloro-10-(3-(4-chloro-3,5-dimethylphenoxy)propyl)-4-methyl-1-oxo-6-(1,3,5-trimethyl-1H-pyrazol-4-yl)-3,4-dihydropyrazino[1,2-a]indol-2(1H)-yl)-1,5-dimethyl-1H-indole-2-carboxylic Acid]: the Ki in series [3] stood at 0.205 ± 0.018 nM. Further, the GI50 in series [4] (setting [8]) was 140 ± 110 nM; in series [5], greater than 12500 nM.
Take `COc1cc(N2C[C@@H](C)n3c(c(CCCOc4cc(C)c(Cl)c(C)c4)c4ccc(Cl)c(-c5c(C)nn(C)c5C)c43)C2=O)c2c(c1)cc(C(=O)O)n2C` [Compound 12, (R)-7-(7-Chloro-10-(3-(4-chloro-3,5-dimethylphenoxy)propyl)-4-methyl-1-oxo-6-(1,3,5-trimethyl-1H-pyrazol-4-yl)-3,4-dihydropyrazino[1,2-a]indol-2(1H)-yl)-5-methoxy-1-methyl-1H-indole-2-carboxylic Acid]: the inhibitory constant (Ki) in series [3] turned out to be 0.185 ± 0.027 nM. Besides, the GI50 in series [4] (setting [8]) was 211 ± 22 nM; in series [5] it was greater than 12500 nM.
In the case of `COc1ccc(N2C[C@@H](C)n3c(c(CCCOc4cc(C)c(Cl)c(C)c4)c4ccc(Cl)c(-c5c(C)nn(C)c5C)c43)C2=O)c2c1cc(C(=O)O)n2C` [Compound 13, (R)-7-(7-Chloro-10-(3-(4-chloro-3,5-dimethylphenoxy)propyl)-4-methyl-1-oxo-6-(1,3,5-trimethyl-1H-pyrazol-4-yl)-3,4-dihydropyrazino[1,2-a]indol-2(1H)-yl)-4-methoxy-1-methyl-1H-indole-2-carboxylic Acid], the Ki in series [3] amounted to 0.091 ± 0.003 nM. The results for the concentration for 50% growth inhibition (GI50) in series [4] (setting [8]) and in series [5] were 110 ± 38 nM and greater than 7100 nM, respectively.
Take `COCc1cc(N2C[C@@H](C)n3c(c(CCCOc4cc(C)c(Cl)c(C)c4)c4ccc(Cl)c(-c5c(C)nn(C)c5C)c43)C2=O)c2c(c1)cc(C(=O)O)n2C` [Compound 14, (R)-7-(7-Chloro-10-(3-(4-chloro-3,5-dimethylphenoxy)propyl)-4-methyl-1-oxo-6-(1,3,5-trimethyl-1H-pyrazol-4-yl)-3,4-dihydropyrazino[1,2-a]indol-2(1H)-yl)-5-(methoxymethyl)-1-methyl-1H-indole-2-carboxylic Acid]: the inhibition constant Ki in series [3] came out at 0.2 ± 0.065 nM. Further, the GI50 in series [4] (NCI-H929, read-out: H929 GI50) was 112 nM; in series [4] (setting [8]) it was 122 ± 16 nM; in series [5], greater than 12500 nM.
As to `COCCOc1cc(N2C[C@@H](C)n3c(c(CCCOc4cc(C)c(Cl)c(C)c4)c4ccc(Cl)c(-c5c(C)nc(C)nc5C)c43)C2=O)c2c(cc(C(=O)O)n2C)c1OC` [Compound 25, (R)-7-(7-Chloro-10-(3-(4-chloro-3,5-dimethylphenoxy)propyl)-4-methyl-1-oxo-6-(2,4,6-trimethylpyrimidin-5-yl)-3,4-dihydropyrazino[1,2-a]indol-2(1H)-yl)-4-methoxy-5-(2-methoxyethoxy)-1-methyl-1H-indole-2-carboxylic Acid], the CL was determined as 51 mL/min/kg in series [6] (mouse IV, dosed at 25 mg/kg) and 16 mL/min/kg in series [7]. For the same molecule, the AUC/Dose in series [6] (mouse IV, dosed at 25 mg/kg, dose normalized) is 334^c nM*h/mpk; in series [7] it was 1324 nM*h/mpk. The molecule further showed a clearance in series [6] (mouse, plasma, iv, 25 mg/kg) of 51 mL/min/kg. Also, the “CL (% hep blood flow)” value in series [7] is listed as 50 % hep blood flow. The values for the 50% growth inhibitory concentration (GI50) in series [4] (setting [8]) and in series [5] were 22 ± 10 nM and greater than 12000 nM, respectively.
